The source of these data is paper PMC10535268, “Design, Synthesis, and Evaluation of Novel Indole Hybrid Chalcones and Their Antiproliferative and Antioxidant Activity” (Molecules, 2023).

The subject of one data set is MDA-MB-231. The data set is described as follows: MTT antiproliferative assay, MDA-MB-231. The conditions noted are these: MDA-MB-231, 72 h incubation, mean ± SD of three independent experiments. The class given is cell-based, human. (Tetrazolium assays rely on reduction of a dye to a coloured formazan, in cell work by metabolically active cells.)
Another data set deals with HCT116. The data set is described as follows: MTT antiproliferative assay, HCT116. Type of data set: cell-based, human. The conditions noted are these: HCT116, 72 h incubation, mean ± SD of three independent experiments.
For the next data set, the system named is Jurkat. The data set is described as follows: MTT antiproliferative assay, Jurkat. Type of data set: cell-based, human. Particulars: 72 h incubation, mean ± SD of three independent experiments.
The next data set has as its system Hela. In words: MTT antiproliferative assay, HeLa. Type of data set: cell-based, human. The conditions noted are these: 72 h incubation, mean ± SD of three independent experiments. Here is the method: Table 2 IC50 (μM) ± SD of tested compounds in different cell lines after 72 h incubation. | column: Cell Line, IC50 (µM) ± SD / Hela
The test system of another data set is MCF-7. In words: MTT antiproliferative assay, MCF-7. The class given is cell-based, human. The conditions noted are these: MCF-7, 72 h incubation, mean ± SD of three independent experiments.
Another data set relates to MCF-10A. In words: MTT cytotoxicity assay, non-cancer MCF-10A. The class given is cell-based, human. Particulars: 72 h incubation, mean ± SD of three independent experiments.
Data set [1] is described as follows: DPPH radical scavenging activity. Particulars: sample 1 mM, 30 min, gallic acid equivalents, mean (±SD), triplicate. (The DPPH test is a chemical assay of radical scavenging.)
Data set [2] in a line: ABTS radical scavenging activity. The conditions noted are these: sample 1 mM, 30 min, gallic acid equivalents, mean (±SD), triplicate. From the text: (§1) Table 3 Antioxidant activity.
Data set [3] is described as follows: Ferric reducing antioxidant power (FRAP). Particulars: sample 1 mM, 30 min, gallic acid equivalents, mean (±SD), triplicate.
Source text: as §1

The test system of another data set is breast cancer cells. The conditions noted are these: flow cytometry, Western blot, fluorescence microscopy; cited from earlier work. A general note: A flow cytometer gives signals particle by particle.
Another data set relates to Bj-5ta. In words: MTT cytotoxicity assay, non-cancer Bj-5ta. The class given is cell-based, human. Particulars: Homo sapiens, 72 h incubation, mean ± SD of three independent experiments.
On the set-up of data set [4]: method as in Lagu et al. 19. Particulars: compared to standard drugs; ref Lagu et al. 19; cited from earlier work.
The subject of data set [5] is normal human liver cell line (L02). Set-up: method as in Lagu et al. 19. The conditions noted are these: ref Lagu et al. 19; cited from earlier work.

In general, IC50 refers to the concentration that gives 50% inhibition. Read a low IC50 as greater potency in that assay. As to `CCCOc1[nH]c2ccccc2c1/C=C/C(=O)c1ccccc1F` [11f, (2E)-1-(2″-Fluorophenyl)-3-(2′-propoxy-1′H-indol-3′-yl)prop-2-en-1-one], the IC50 was 34 ± 3 µM with MDA-MB-231; 34.4 ± 1.1 µM in the data set on HCT116; 37.7 ± 1.1 µM with Jurkat; 45.3 ± 0.7 µM with Hela; 37.3 ± 1.5 µM in the data set with MCF-7; over 100 µM in the data set with MCF-10A. Moreover, the “IC50 (µM) ± SD, MCF-10A” value in the data set with MCF-10A is “minimal effect”. The DPPH in data set [1] is reported as 227.3 (±11.0) µmol GAE/mmol. In addition, in data set [2], the ABTS is given as 175.1 (±10.4) µmol GAE/mmol. Also, the FRAP in data set [3] is 183.5 (±0.9) µmol GAE/mmol. The “mode of cell death” value with breast cancer cells was “induce cell cycle arrest in the G2/M phase and apoptosis”.

For orientation: melting point means the temperature, or range, at which the solid turns liquid. `O=C(/C=C/c1c[nH]c2ccccc12)c1ccc(C(F)(F)F)cc1` [12a, (2E)-3-(1H-indol-3-yl)-1-(4-trifluoromethylphenyl) prop-2-en-1-one] came in with a melting point of 195 to 197 °C. For the same compound, the concentration for half-maximal inhibition (IC50) with MDA-MB-231 (Homo sapiens) is over 100 µM. The compound further showed a half-maximal inhibitory concentration (IC50) in the data set on HCT116 (Homo sapiens, HCT-116, 72 h) of 59.1 ± 1.1 µM. This compound also registered an IC50 in the data set with Jurkat (Homo sapiens) of over 100 µM. The compound further showed an IC50 in the data set with Hela (Homo sapiens, HeLa, 72 h) of 68.1 ± 3.3 µM. The compound also registered a half-inhibitory concentration (IC50) in the data set on MCF-7 (Homo sapiens, MCF7, 72 h) of 43.4 µM. In the data set with MCF-7, the IC50 stood at 43.3 ± 0.6 µM. In addition, the IC50 in the data set on MCF-10A (Homo sapiens, MCF-10A, 72 h) was over 100 µM. This compound also gave an IC50 with Bj-5ta of over 100 µM. Besides, in [4], the antimicrobial activity result was “greatest antimicrobial activity”. For the same compound, the “cytotoxicity on normal human liver cell line (L02)” value in [5] was “without showing cytotoxicity”.
